The values below come from US6645914B1, “Surfactant-ammonium sulfate adjuvant composition for enhancing efficacy of herbicides” (NDSU-Research Foundation, priority 2002, dated 2003).

What all share (assay type): in vivo
The subject of assay [1] is Kochia (Kochia scoparia L.). Kind of assay: Greenhouse kochia fresh weight reduction from 2,4-D, dicamba, bentazon as influenced by adjuvants. As to conditions: no adjuvant. On the procedure:
Kochia (Kochia scoparia L.) was grown in plastic cones containing a commercial peat-based greenhouse mixture with 5 plants per cone. All growing conditions and herbicide application procedures were similar as explained in Example 2. Herbicides were applied to kochia at the 4 to 6-leaf stage. Herbicide formulation and rates of herbicides and adjuvants are specified in Table 7. Plants were evaluated for herbicide injury and fresh weight reduction 14 days after herbicide application. Data presented are the means of two experiments with four replicates per experiment.
The adjuvants, Activator 90. RTM and Composition 1, were added into soft and hard water carriers (volume per volume concentrations shown in TABLE 7) with 2,4-D at 220 g ae/ha, dicamba at 75 g ae/ha, or bentazon at 200 g ai/ha to prepare the final aqueous spray mixture applied at 80 L/ha on 4 to 6-leaf kochia. TABLE 7 includes the results of assessment made 2 weeks after treatment.

Assay [2] concerns Wheat (Triticum aestivum L.). The assay can be described thus: Greenhouse wheat fresh weight reduction from glyphosate as influenced by adjuvants. The conditions noted are these: adjuvant 1%. On the procedure:
(§1) Wheat (Triticum aestivum L.), velvetleaf (Abutilion theophrasti Medicus), Roundup Ready.RTM soybean (Glycine max (L.) Merr.), and Roundup Ready.RTM corn (Zea mays L.) were grown in plastic cones containing a commercial peat-based greenhouse mixture. Plants were thinned 1 wk after emergence to seven wheat, three velvetlaf, or one corn or soybean per cone and were watered and fertilized as needed for healthy growth. Natural daylight was supplemented for 16 h photoperiod with metal halide lamps with the light intensity of 450 μE/m^2/s. The greenhouse was maintained at 20° C. at night and 25 ±5° C. during the day. Glyphosate with adjuvants was applied to three-leaf wheat and corn, first-pair leaf velvetleaf, and to first-trifoliolate-leaf soybean using a cabinet laboratory sprayer that delivered 80 L/ha through a 8001 flat fan nozzle at 280 kPa generated by compressed air. Distilled water, Fargo tap water (soft), and two well waters from the Devils Lake, ND, area (hard and high sodium content, respectively) were used as spray carriers. Ion concentrations in these waters are described in TABLE 1. Formulation type and rates of glyphosate and adjuvants are specified in each table. In all greenhouse studies, plants were evaluated for herbicide injury and adjuvant efficacy 14 days after herbicide application. Data presented are the means of two experiments with four replicates per experiment.
The adjuvants, ammonium sulfate, Activator 90. RTM, and mixtures thereof, Surfate.RTM, and Composition 1 were added into water [weight (for solids) or volume (for liquids) per volume concentrations shown in TABLE 2] with glyphosate at 100 g ae/ha to prepare the final aqueous spray mixture applied at 80 L/ha on 2 to 3 leaf wheat. Calcium chloride was added to distilled water to get 0, 125, 250, and 500 mg/L calcium cations. TABLE 2 includes the results of assessment made 2 weeks after treatment.
The adjuvants, Activator 90. RTM, MON 0818, Atplus GTM7, Atplus GTM10 and their mixtures with ammonium sulfate, Surfate.RTM, and Composition 1 were added into three water carriers [weight (for solids) or volume (for liquids) per volume concentrations shown in TABLE 3] with glyphosate (100 g ae/ha) to prepare the final aqueous spray mixture applied at 80 L/ha on 2 to 3 leaf wheat. TABLE 3 includes the results of assessment made 2 weeks after treatment.
The adjuvants, ammonium sulfate, Activator 90.RTM, and mixtures thereof, Surfate.RTM, and Composition 1 were added into two water carriers (weight [for solids] or volume [for liquids] per volume concentrations shown in TABLE 4) with three glyphosate formulations, all at 125 g ae/ha, to.prepare the final aqueous spray mixture applied at 80 L/ha on 2 to 3 leaf wheat. TABLE 4 includes the results of assessment made 2 weeks after treatment.
Various iminodipropionate, betaine, imidazoline, and amine oxide amphoteric surfactants applied with ammonium sulfate and adjuvant formulations containing surfactant and ammonium sulfate, including Composition 1 of present invention, were added into hard water carrier [weight (for solids) or volume (for liquids) per volume concentrations shown in TABLE 5] with glyphosate at 125 g ae/ha to prepare the final aqueous spray mixture applied at 80 L/ha on 2 to 3 leaf wheat. TABLE 5 includes the results of assessment made 2 weeks after treatment.

In assay [3] the test system is velvetleaf (Abutilion theophrasti Medicus). The assay can be described thus: Greenhouse velvetleaf fresh weight reduction from glyphosate as influenced by adjuvants. The conditions noted are these: glyphosate (Roundup Ultra Max.RTM) 150 g ae/ha; hard water (Devils Lake, ND, No. 2 - well water); adjuvant 1%. On the procedure:
as §1, with “experiment. […]” for “experiment.”

Counter-ions that a name gives are not always drawn.

`O=C(O)COc1ccc(Cl)cc1Cl` [2,4-D-dimethylamine salt, (2,4-dichlorophenoxy)acetic acid]: the “percent fresh weigh reduction” value in assay [1] (2,4-D-dimethylamine salt 220 g ae/ha, water Devils Lake No. 1 (well)) is on record as 10%; in assay [1] (2,4-D-dimethylamine salt 220 g ae/ha, water Fargo, ND (tap)), 20%.

For the molecule `N.N.O=S(=O)(O)O` [Ammonium sulfate], the “% fresh weight reduction” value in assay [2] (Roundup Custom.RTM 125 g ae/ha, water Devils Lake No. 1 (well)) stood at 23%; in assay [2] (Roundup Custom.RTM 125 g ae/ha, water Fargo (tap)), 68%; in assay [2] (Roundup Ultra Max.RTM 125 g ae/ha, water Devils Lake No. 1 (well)) it was 43%; in assay [2] (Roundup Ultra Max.RTM 125 g ae/ha, water Fargo (tap)) it was 54%; in assay [2] (Touchdown.RTM 125 g ae/ha, water Devils Lake No. 1 (well)), 24%; in assay [2] (Touchdown.RTM 125 g ae/ha, water Fargo (tap)), 71%. For the same molecule, the “% fresh weight reduction” value in assay [2] (glyphosate 100 g ae/ha (Roundup Ultra Max.RTM), Ca2+ 0 mg/L, 2 weeks after treatment) is recorded as 65%; in assay [2] (glyphosate 100 g ae/ha (Roundup Ultra Max.RTM), Ca2+ 125 mg/L, 2 weeks after treatment) it was 72%; in assay [2] (glyphosate 100 g ae/ha (Roundup Ultra Max.RTM), Ca2+ 250 mg/L, 2 weeks after treatment) it was 73%; in assay [2] (glyphosate 100 g ae/ha (Roundup Ultra Max.RTM), Ca2+ 500 mg/L, 2 weeks after treatment), 64%. In addition, in assay [3], the “Fresh weight reduction %” value stood at 54%.

Regarding `CC(C)N1C(=O)c2ccccc2NS1(=O)=O` [bentazon-sodium salt, 3-(1-methylethyl)-(1H)-2,1,3-benzothiadiazin-4(3H)-one 2,2-dioxide], the “percent fresh weigh reduction” value in assay [1] (bentazon-sodium salt 200 g ai/ha, water Devils Lake No. 1 (well)) is recorded as 5%; in assay [1] (bentazon-sodium salt 200 g ai/ha, water Fargo, ND (tap)), 20%.

Regarding `COc1c(Cl)ccc(Cl)c1C(=O)O` [dicamba-sodium salt, 3,6-dichloro-2-methoxybenzoic acid], the “percent fresh weigh reduction” value is 9% in assay [1] (dicamba-sodium salt 75 g ae/ha, water Devils Lake No. 1 (well)) and 12% in assay [1] (dicamba-sodium salt 75 g ae/ha, water Fargo, ND (tap)).
